Reference: article PMC6382696, “Drug Repurposing: The Anthelmintics Niclosamide and Nitazoxanide Are Potent TMEM16A Antagonists That Fully Bronchodilate Airways” (Frontiers in Pharmacology, 2019)
Where two headings read alike, the source gives them in different places.

Assays:
[1] = test system: human bronchial rings; assay: Wire myograph bronchodilation of carbachol pre-contracted human bronchial rings (Amgen)
Description: Bronchodilator studies using human bronchial rings (Figure 5E–G and Supplementary Figure 38) used the same instruments and reagents described earlier for studies on mouse tracheal rings.
Non-transplantable human lungs were obtained through the International Institute for the Advancement of Medicine, IIAM (Edison, NJ, United States) from non-smoking donors who had been ventilated for <3 days with acceptable blood gasses and used within 24 h of cross-clamp time.
Human 4th order bronchial rings were isolated, sliced into 2 mm long rings and then mounted individually in chambers of wire myographs containing 6 ml room temperature PSS per chamber. […] Bronchial rings are allowed to equilibrate in PSS while chambers are warmed to 37°C. […] The rings were then equilibrated for additional 40–60 min, changing buffer every 15–20 min. Tension was adjusted if it dropped below 9.8 mN. Airway rings were “woken up” by exposing to pre-warmed, aerated KPSS and allowing rings to reach plateau of constriction, followed by washing rings four times with PSS. This procedure was repeated two additional times.
Airway contraction response was then assessed by treating with increasing doses of the contractant, carbachol (10 nM to 10 μM), waiting for response plateaus (at least 5 min between additions).
At the end of each CCRC, rings were fully relaxed by addition of 2.2 mM theophylline. One hundred percent contraction was calculated by subtracting the stable tension remaining in the airway ring after theophylline addition from the tension achieved after addition of EC75 carbachol while 100% relaxation is the net tension remaining after theophylline addition. Dose response curves and EC50 values for bronchodilation were determined in GraphPad Prism.

[2] = test system: primary human ASM cells; assay: Methacholine-induced calcium flux in primary human ASM cells; type: cell-based; details: methacholine 10 M (so in the source), read-out: IC50 block of methacholine calcium flux
Description: 1.1 Measuring antagonist effects on bronchial smooth muscle cell (BSMC) pro-contractile calcium flux.
Human BSMCs were obtained from Lonza, resuspended, cultured and serum starved for 24 hours as described for the histamine membrane potential assay. Compounds and dilutions were prepared in same manner, except they were serially diluted in Assay Buffer (2 mM CaCl2, 1 mM MgCl2, 4.5 mM KCl, 155 mM NaCl, 5 mM HEPES, 10 mM glucose, pH7.4) to 4X the final concentration. A Calcium Indicator Working Solution (10 ml) was prepared by adding 1ml BD PBX Signal Enhancer (Cat# 51 -9006254) and 10 µl of BD Calcium Indicator (BD Cat# 850000 resuspended in 100% DMSO) to 9 ml Assay Buffer. Following serum starvation of the BSMCs, culture media was aspirated off and 50µl of Calcium Indicator Working Solution was added t o each well of microtiter plate. Twenty-five microliters of the 4X serially diluted compounds were then added and cells were incubated with compounds for 30 minutes at room temperature. Twenty -five microliters of a 4X histamine or methacholine solution (where 1X reflects EC 80-EC100 concentration from earlier validation of aliquot of cells from same donor) was then added and fluorescence changes were measured by a FLIPR-Tetra or internal FlashFluor instrument. In some experiments the TMEM16A opener, Eact, was used in place of histamine or methacholine.

[3] = molecular target: T1, human CFTR (Homo sapiens, UniProt P13569); assay: IonWorks Barracuda electrophysiology, CFTR chloride current in CHO cells; type: cell-based; details: for effect on CFTR chloride current: 10 µM compound, CHO CFTR
T1 construct: host or cells: CHO
Excerpt: HEK293 cells stably expressing the human TMEM16A (abc) variant and CHO cells expressing the human CFTR gene were from ChanTest. The IonWorks Barracuda (IWB) procedure and data provided are from outsourced studies performed at ChanTest (Charles River Discovery, Cleveland, OH, United States) who were blinded as to the identity of the test articles or compounds provided by Amgen.
For measuring compound effects on CFTR chloride currents, compounds were serially diluted in HEPES-buffered physiological saline to 2X final concentration allowing for an 8-point dose-response analysis. Test article concentrations were applied to naïve cells (n = 4, where n = the number of replicate wells/concentration) via steel needles, where each application will consist of addition of 20 μl of 2X concentrated test article solution to a final 40 μl volume in the extracellular well of the Population Patch ClampTM (PPC) planar electrode. After mixing (three times), duration of exposure to compound is at least 5 min. Final solutions contain 0.3% DMSO. […] The current is measured using a pulse pattern consisting of a voltage step to +60 mV, 100 ms duration; voltage ramp from +60 to −120 mV, 1000 ms; step to −120 mV, 200 ms; and step to 0 mV, 200 ms; from holding potential, −30 mV. Current amplitudes were measured at the voltage step to 0 mV. The recording procedure was as follows: extracellular buffer is loaded into the PPC plate wells (11 μl per well). Cell suspension was pipetted into the wells (9 μl per well) of the PPC planar electrode. After establishment of a whole-cell configuration via amphotericin patch perforation similar to that described earlier, membrane currents were recorded using the patch clamp amplifier in the IonWorks^TM Barracuda system. Two recordings (scans) were then performed, one scan before and a second scan 5 min after test article (TA) application. […] Data acquisition and analyses were performed using the IonWorks Barracuda^TM system operation software (version 2.0.2). The decrease in current amplitude after test article application was used to calculate the percent block relative to control. […] Inhibition effect was calculated as: % Inhibition = (1 – ITA/IBaseline) × 100%, where IBaseline and ITA were the currents measured in control (before addition of a test article) and in the presence of a test article, respectively.

[4] = Homo sapiens, EC75 carbachol, 4th order bronchi, 5 μM indomethacin, read-out: EC50 relaxing carbachol precontracted human bronchial rings
[5] = 20 μM forskolin, IonWorks Barracuda, read-out: CFTR Chloride Current (IC50)
[6] = Homo sapiens, supplement, 5 M indomethacin (so in the source), read-out: EC50 relaxation of carbachol pre-contracted human bronchial rings

T1 sequence (P13569 whole entry): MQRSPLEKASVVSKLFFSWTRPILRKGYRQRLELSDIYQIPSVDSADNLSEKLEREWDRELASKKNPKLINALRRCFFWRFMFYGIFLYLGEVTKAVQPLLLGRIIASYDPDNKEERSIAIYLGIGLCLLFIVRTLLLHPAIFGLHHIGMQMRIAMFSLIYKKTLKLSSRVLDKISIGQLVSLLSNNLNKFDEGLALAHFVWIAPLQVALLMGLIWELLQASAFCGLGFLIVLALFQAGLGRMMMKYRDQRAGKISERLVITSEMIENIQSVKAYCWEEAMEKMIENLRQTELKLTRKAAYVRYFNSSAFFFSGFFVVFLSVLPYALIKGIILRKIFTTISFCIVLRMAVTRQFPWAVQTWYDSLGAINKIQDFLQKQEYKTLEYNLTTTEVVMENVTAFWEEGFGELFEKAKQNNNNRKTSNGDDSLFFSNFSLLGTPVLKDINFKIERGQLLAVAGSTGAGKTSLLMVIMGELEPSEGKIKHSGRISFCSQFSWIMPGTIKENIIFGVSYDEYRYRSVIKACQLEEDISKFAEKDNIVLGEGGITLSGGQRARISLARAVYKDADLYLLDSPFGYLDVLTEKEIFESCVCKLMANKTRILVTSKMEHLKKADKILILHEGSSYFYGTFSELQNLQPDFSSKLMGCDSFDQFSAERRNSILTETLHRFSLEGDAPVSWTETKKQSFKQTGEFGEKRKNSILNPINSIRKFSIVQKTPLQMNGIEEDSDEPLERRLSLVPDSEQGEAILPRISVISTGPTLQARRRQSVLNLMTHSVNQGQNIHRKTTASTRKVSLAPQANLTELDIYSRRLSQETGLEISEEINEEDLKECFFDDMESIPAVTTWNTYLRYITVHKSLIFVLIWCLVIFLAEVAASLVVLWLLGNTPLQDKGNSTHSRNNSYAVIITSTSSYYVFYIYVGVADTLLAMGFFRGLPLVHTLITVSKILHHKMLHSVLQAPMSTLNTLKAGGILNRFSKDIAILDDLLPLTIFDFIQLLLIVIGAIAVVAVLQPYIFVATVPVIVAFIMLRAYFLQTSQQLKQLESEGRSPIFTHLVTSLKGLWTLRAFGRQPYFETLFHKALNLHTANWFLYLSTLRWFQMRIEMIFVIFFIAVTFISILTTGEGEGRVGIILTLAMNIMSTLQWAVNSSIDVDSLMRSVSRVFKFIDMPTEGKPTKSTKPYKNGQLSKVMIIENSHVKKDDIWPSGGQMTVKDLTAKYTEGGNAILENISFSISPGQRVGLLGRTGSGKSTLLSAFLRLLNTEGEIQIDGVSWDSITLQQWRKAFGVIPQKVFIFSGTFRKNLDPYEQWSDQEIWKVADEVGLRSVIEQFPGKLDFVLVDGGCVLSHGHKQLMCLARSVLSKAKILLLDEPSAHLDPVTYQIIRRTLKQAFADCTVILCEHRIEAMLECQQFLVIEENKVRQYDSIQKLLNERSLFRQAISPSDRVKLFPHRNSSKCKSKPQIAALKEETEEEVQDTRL

Compound | EC50 ([1]; EC75 carbachol, 4th order bronchi, 5 μM indomethacin, read-out: EC50 relaxing carbachol precontracted human bronchial rings) | EC50 [1, 4] | IC50 [2] | IC50 [3, 5] | effect on cAMP-induced CFTR chloride current ([3]; IonWorks Barracuda) | EC50 [1, 6] | percent of inhibition (POI) of the forskolin-induced CFTR current [3] | effect on CFTR chloride current [3] | IC50 [3]
Oc1ccc(Cl)cc1Cc1cc(Cl)ccc1O [Dichlorophen] | 10.6 ± 12 µM | 19.1 µM | 106 µM | – | – | – | – | – | –
N#Cc1c(C(F)(F)F)cc(O)n2c1nc1ccccc12 [1PBC] | – | 0.91 ± 0.2 µM | – | > 30 µM | inactive | 0.761 µM | – | – | –
CCc1c(C)nc(SCC(=O)Nc2nc(-c3ccc(OC)cc3)cs2)[nH]c1=O [T16Ainh-A01] | – | – | – | > 30 µM | – | – | – | – | –
O=C(Nc1ccc([N+](=O)[O-])cc1Cl)c1cc(Cl)ccc1O [Niclosamide] | – | 0.73 µM | – | > 30 µM | inactive | – | < 20% | no significant effects | –
O=C(O)c1cccnc1Nc1cccc(C(F)(F)F)c1 [Niflumic Acid] | – | 14.4 ± 0.76 µM | – | > 30 µM | – | 14.9 µM | – | – | –
COc1cc([N+](=O)[O-])ccc1NC(=O)c1cc(Cl)c2ccccc2c1O [Cpd 4] | – | 1.61 µM | – | > 30 µM | inactive | – | < 20% | no significant effects | –
COc1cc(Nc2ccc([N+](=O)[O-])cc2C(=O)O)cc2ccccc12 [MONNA] | – | – | – | 19 µM | reduced | – | – | – | –
O=C(Nc1ccc([N+](=O)[O-])cc1)c1cc(Cl)ccc1O [Cpd 2] | – | – | – | – | inactive | – | < 20% | – | –
CC(C)(C)C1CCc2c(sc(NC(=O)c3ccco3)c2C(=O)O)C1 (stereo not shown) [CaCCinh-A01] | – | 9.24 µM | 50 µM | 10.1 µM | reduced | – | – | – | –
CCc1oc2ccccc2c1C(=O)c1cc(Br)c(O)c(Br)c1 [Benzbromarone] | – | 2.08 ± 1.95 µM | 7 µM | – | reduced | 3.45 µM | – | – | 5.2 µM
